Test results from EPA's ToxRefDB 2.

How the values were obtained:
rat [1] = settings: Prenatal developmental toxicity study, sprague dawley, Oral, Gavage/Intubation, dose end: 15 GD
rat [2] = settings: Subchronic oral toxicity in rodents, fischer, Feed, dose end: 13 week, group: systemic, systemic / clinical chemistry / cholesterol / cholesterol + systemic / organ weight / kidney / relative to body weight + systemic / organ …
rat [3] = settings: Combined chronic toxicity/carcinogenicity, sprague dawley, Oral, Feed, dose end: 26 month, group: systemic
rat [4] = settings: Combined chronic toxicity/carcinogenicity; fischer; Oral; Feed; dose end: 25 month; group: systemic; systemic / clinical chemistry / creatinine / creatinine + systemic / clinical chemistry / gamma glutamyl transpeptides (gtp) / gamma …
dog = settings: Chronic toxicity; beagle; Oral; Feed; dose end: 52 week; group: systemic; systemic / clinical chemistry / alkaline phosphatase (alp/alk) / alkaline phosphatase (alp/alk) + systemic / organ weight / liver / absolute…
rabbit [5] = settings: Prenatal developmental toxicity study, dutch, Oral, Gavage/Intubation, dose end: 27 GD
mouse [6] = settings: Subchronic oral toxicity in rodents, cd1, Feed, dose end: 13 week
rat [7] = settings: Subchronic oral toxicity in rodents, sprague dawley, Feed, dose end: 90 day, group: systemic, systemic / organ weight / liver / absolute + systemic / organ weight / liver / relative to body weight + systemic / organ weight / thyroid …
rat [8] = settings: Combined chronic toxicity/carcinogenicity, fischer, Oral, Feed, dose end: 2 year
rat [9] = settings: Combined chronic toxicity/carcinogenicity, fischer, Oral, Feed, dose end: 106 week
rat [10] = settings: Multigenerational reproductive toxicity study, sprague dawley, Oral, Feed, dose end: 2 generation
rabbit [11] = settings: Prenatal developmental toxicity study, Dutch, Oral, Gavage/Intubation, dose end: 18 GD
mouse [12] = settings: Combined chronic toxicity/carcinogenicity, cd1, Oral, Feed, dose end: 24 month
[13] = group: developmental, developmental / developmental malformation / bone / absent + developmental / developmental malformation / bone / supernumerary
[14] = group: developmental, developmental / developmental malformation / bone / absent + developmental / developmental malformation / bone / supernumerary + systemic / …
[15] = group: maternal, systemic / in life observation / body weight / body weight gain
[16] = group: maternal, systemic / in life observation / body weight / body weight gain + systemic / in life observation / clinical signs / salivation + systemic / …
[17] = systemic / pathology microscopic / kidney / nephropathy + systemic / pathology microscopic / liver / degeneration
[18] = systemic / pathology microscopic / kidney / nephropathy + systemic / pathology microscopic / liver / degeneration + systemic / pathology …
[19] = group: developmental, systemic / in life observation / body weight / fetal weight
[20] = group: maternal, reproductive / reproductive performance / aborted / aborted + systemic / in life observation / body weight / body weight gain + systemic / …
[21] = group: cholinesterase, cholinesterase / cholinesterase / cholinesterase / brain cholinesterase (che)
[22] = group: systemic, systemic / organ weight / liver / absolute + systemic / organ weight / liver / relative to body weight + systemic / organ weight / liver / …
[23] = group: cholinesterase, cholinesterase / cholinesterase / cholinesterase / brain cholinesterase (che) + cholinesterase / cholinesterase / cholinesterase / …
[24] = group: systemic, systemic / in life observation / body weight / body weight + systemic / in life observation / body weight / body weight gain + systemic / …
[25] = group: cholinesterase, cholinesterase / cholinesterase / cholinesterase / plasma cholinesterase (che) + cholinesterase / cholinesterase / cholinesterase / brain …
[26] = group: systemic, systemic / hematology / hematocrit (hct) / hematocrit (hct) + systemic / hematology / mean corpuscular (cell) volume (mcv) / mean …
[27] = group: cholinesterase, cholinesterase / cholinesterase / cholinesterase / brain cholinesterase (che) + cholinesterase / cholinesterase / cholinesterase / plasma …
[28] = group: offspring, systemic / in life observation / body weight / offspring (pup) weight + systemic / pathology microscopic / kidney / dilatation
[29] = group: parental, systemic / pathology gross / lung / discolored + systemic / pathology microscopic / lung / hyperplasia + systemic / pathology microscopic / …
[30] = group: reproductive, reproductive / offspring survival early / birth index / birth index
[31] = group: cholinesterase, cholinesterase / cholinesterase / cholinesterase / erythrocyte cholinesterase (che) + cholinesterase / cholinesterase / cholinesterase / …
[32] = group: developmental, developmental / developmental malformation / bone / delayed ossification + systemic / in life observation / body weight / fetal weight
[33] = group: maternal, reproductive / reproductive performance / resorptions / resorptions + reproductive / reproductive performance / aborted / aborted + systemic…
[34] = group: systemic, systemic / in life observation / clinical signs / urine staining - perineum
[35] = group: systemic, systemic / in life observation / clinical signs / vaginal discharge + systemic / in life observation / clinical signs / urine staining - …

C=C(C)C1CC=C(C)CC1 (stereo unspecified) [Limonene]
250 mg/kg/day: NEL (rat [1]; [14]) | NOAEL (rat [1]; [14]) | NEL (rat [1]; [16]) | NOAEL (rat [1]; [16])
500 mg/kg/day: LEL (rat [1]; [13]) | LOAEL (rat [1]; [13]) | LEL (rat [1]; [15]) | LOAEL (rat [1]; [15])

CCCCOCN(C(=O)CCl)c1c(CC)cccc1CC [Butachlor]
50 mg/kg/day: NEL (rabbit [5]; [19]) | NOAEL (rabbit [5]; [19]) | NEL (rabbit [5]; [20]) | NOAEL (rabbit [5]; [20]) | LEL (rat [7]) | LOAEL (rat [7])
< 4.5 mg/kg/day: NOAEL (rat [3]; [17]) | NEL (rat [3]; [18])
25 mg/kg/day: LEL (dog) | LOAEL (dog)
17.5 mg/kg/day: NEL (rat [2]) | NOAEL (rat [2])
5 mg/kg/day: NEL (dog) | NOAEL (dog)
> 900 mg/kg/day: LOAEL (mouse [6]; [21])
58.7 mg/kg/day: LEL (rat [2]) | LOAEL (rat [2])
4.5 mg/kg/day: LOAEL (rat [3]; [17]) | LEL (rat [3]; [18])
37.1 mg/kg/day: LEL (rat [4]) | LOAEL (rat [4])
3.65 mg/kg/day: NEL (rat [4]) | NOAEL (rat [4])
≥ 900 mg/kg/day: NOAEL (mouse [6]; [21])
< 150 mg/kg/day: NEL (mouse [6]; [21]) | NEL (mouse [6]; [22]) | NOAEL (mouse [6]; [22])
150 mg/kg/day: LEL (rabbit [5]; [19]) | LOAEL (rabbit [5]; [19]) | LEL (rabbit [5]; [20]) | LOAEL (rabbit [5]; [20]) | LEL (mouse [6]; [21]) | LEL (mouse [6]; [22]) | LOAEL (mouse [6]; [22])
< 50 mg/kg/day: NEL (rat [7]) | NOAEL (rat [7])

COP(=O)(OC)C(O)C(Cl)(Cl)Cl (stereo unspecified) [Trichlorfon]
129 mg/kg/day: LEL (rat [8]; [23]) | LOAEL (rat [8]; [23]) | LEL (rat [8]; [24]) | LOAEL (rat [8]; [24])
< 15 mg/kg/day: NEL (rat [10]; [27]) | NOAEL (rat [10]; [27])
175 mg/kg/day: LEL (rat [10]; [28]) | LOAEL (rat [10]; [28]) | LEL (rat [10]; [29]) | LOAEL (rat [10]; [30]) | LEL (rat [10]; group: reproductive, reproductive / offspring survival early / birth index / birth index + reproductive / offspring survival early / litter size / litter size)
110 mg/kg/day: LEL (rabbit [11]; [32]) | LOAEL (rabbit [11]; [32]) | LOAEL (rabbit [11]; group: maternal, reproductive / reproductive performance / resorptions / resorptions)
50 mg/kg/day: NEL (rat [10]; [28]) | NOAEL (rat [10]; [28]) | NEL (rat [10]; [29]) | NEL (rat [10]; [30]) | NOAEL (rat [10]; [30])
> 405 mg/kg/day: LOAEL (mouse [12]; [35])
5 mg/kg/day: NEL (rat [9]; [25]) | NOAEL (rat [9]; [25]) | NEL (rat [9]; [26]) | NOAEL (rat [9]; [26])
45 mg/kg/day: LEL (mouse [12]; [23]) | LOAEL (mouse [12]; [23]) | LEL (mouse [12]; [34])
≥ 405 mg/kg/day: NOAEL (mouse [12]; [35])
≥ 175 mg/kg/day: NOAEL (rat [10]; [29])
35 mg/kg/day: LEL (rabbit [11]; [31]) | LOAEL (rabbit [11]; [31]) | NEL (rabbit [11]; [32]) | NOAEL (rabbit [11]; [32]) | LEL (rabbit [11]; group: maternal, reproductive / reproductive performance / aborted / aborted + systemic / in life observation / clinical signs / altered breathing rate + …) | NOAEL (rabbit [11]; [33])
< 45 mg/kg/day: NEL (mouse [12]; [23]) | NOAEL (mouse [12]; [23]) | NEL (mouse [12]; [34])
< 129 mg/kg/day: NEL (rat [8]; [23]) | NOAEL (rat [8]; [23]) | NEL (rat [8]; [24]) | NOAEL (rat [8]; [24])
> 175 mg/kg/day: LOAEL (rat [10]; [29])
10 mg/kg/day: NEL (rabbit [11]; [31]) | NOAEL (rabbit [11]; [31]) | NEL (rabbit [11]; [33])
15 mg/kg/day: LEL (rat [9]; [25]) | LOAEL (rat [9]; [25]) | LEL (rat [9]; [26]) | LOAEL (rat [9]; [26]) | LEL (rat [10]; [27]) | LOAEL (rat [10]; [27])
